Tested on: c-MYC protein expression
Assay: Expression level of Wnt/β-catenin target protein c-MYC by western blotting in HCT116 cells
Assay type: cell-based
Details: Homo sapiens, 24 hours, read-out: Inhibition rate (%) c-MYC protein
Description: Expression levels of target proteins of the Wnt/β-catenin signaling pathway was analyzed by western blotting method, and effects of the compound of the present invention on Wnt/β-catenin signaling activity were studied by using a change of these levels as an indicator. HCT116 cells cultured in the same manner as in Test Example 2 were diluted with the medium 1 so as to have a cell concentration of 5×10^5 cells/mL, and 5 mL of the diluted cells were seeded into T25 flasks, followed by culturing overnight in the 5% CO2 incubator. Next day, solutions of the compound to be tested obtained by diluting 10 and 3 mM DMSO stock solutions of the compound to be tested 100-fold with the medium 1 were added to each flask so that the amount of the solution in the flask was one tenth of the amount of the final solution (final concentrations of the compound to be tested: 10 and 3 μM). […] Supernatant was recovered by centrifugal operation (15,000 rpm, 10 min.) and amounts of proteins were determined. […] Thereafter, using a CCD camera (GE Healthcare Co., ImageQuant LAS 500), the respective bands were detected by chemiluminescence. The detected bands were quantified by densitometry (GE Healthcare Co., ImageQuant TL v8.1.0.0). Inhibition rates were calculated from the intensities of the bands in the respective groups, with the luminescence of the band of the DMSO added group being 100%. […]

With O[C@H]1CC[C@@H](Oc2cccc3cnc(Nc4ccc5nc[nH]c5c4)nc23)CC1 [Example 1, cis-4-({2-[(1H-benzo[d]imidazol-6-yl)amino]quinazolyn-8-yl}oxy)cyclohexanol] the inhibition at 3 µM (HCT-116, 3 μM) was 63.9% and the inhibition at 10 µM (HCT-116, 10 μM) was 90.2%.
